For assay [1], the system named is Trichophyton mentagrophytes SM-110. Nature of the assay: Antifungal activity evaluation test: minimum inhibitory concentration (MIC), broth dilution by reference to CLSI M38-A2. Conditions: SM110, read-out: MIC (T. menta.). In kind it is cell-based. The method in brief:
(§1)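 MIC read visually as lowest concentration inhibiting growth by at least 80% relative to control after 4 days at 35° C. Trichophyton strains inoculated at 2×10^3 cells/mL final in MOPS-buffered RPMI 1640 (pH 7.0); compounds as 2-fold DMSO series, CLSI M38-A2 basis.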
Background: Broth dilution looks for growth in wells or tubes with falling amounts of substance.

Assay [2] concerns Trichophyton rubrum KD-1130. The assay is described as above. The note with it: KD1130, read-out: MIC (T. rubrum). In kind it is cell-based. The method in brief:
as §1

Data on 41 compounds can be found in US10647675B2 (priority 2015, dated 2020).

Values after ≈ are worked out from the molar mass of the structure shown.

The term MIC denotes the lowest concentration that inhibits growth of the organism. Consider `COc1ccc(-c2cccnc2Oc2cnc(C(F)F)c(C)c2)c(OC)n1` [I-123, 2′-{[6-(difluoromethyl)-5-methylpyridin-3-yl]oxy}-2,6-dimethoxy-3,3′-bipyridine], for which the MIC in assay [1] and in assay [2] was not above 0.1 µg/mL throughout.

Regarding `COc1ncccc1-c1cccnc1Oc1ccc(OCc2ccccc2)nc1` [I-176, 2-{[6-(benzyloxy)pyridin-3-yl]oxy}-2′-methoxy-3,3′-bipyridine], the MIC in assay [1] and in assay [2] was not above 0.1 µg/mL in each case.

As for `CN(C)c1ccccc1-c1cccnc1Oc1ccc(C(F)(F)F)nc1` [I-62, N,N-dimethyl-2-(2-{[6-(trifluoromethyl)pyridin-3-yl]oxy}pyridin-3-yl)-aniline], the MIC in assay [1] was 1.56 to 6.25 µg/mL (≈ 4.34 to 17.4 µM); in assay [2], 0.2 to 0.78 µg/mL (≈ 0.557 to 2.17 µM).

Turning to `Cc1cc(-c2cccnc2Oc2ccc(C(F)(F)F)nc2)n2nccc2n1` [I-48, 5-methyl-7-(2-{[6-(trifluoromethyl)pyridin-3-yl]oxy}pyridin-3-yl)-pyrazolo[1,5-a]pyrimidine], the MIC in assay [1] lay in the range of 1.56 to 6.25 µg/mL (≈ 4.2 to 16.8 µM); in assay [2], 0.2 to 0.78 µg/mL (≈ 0.539 to 2.1 µM).

For the compound `COc1ccccc1-c1cncnc1Oc1ccc(C(F)(F)F)cc1` [I-321, 5-(2-methoxyphenyl)-4-[4-(trifluoromethyl)phenoxy]pyrimidine], the MIC in assay [1] and in assay [2] was not above 0.1 µg/mL throughout.

Consider `COc1ccccc1-c1cccnc1Oc1ccc2c(c1)C(=O)CCC2` [I-273, 7-{[3-(2-methoxyphenyl)pyridin-2-yl]oxy}-3,4-dihydronaphthalen-1(2H)-one], for which the MIC in assay [1] and in assay [2] was not above 0.1 µg/mL each time.

Turning to `FC(F)(F)c1ccc(Oc2ncccc2-c2cccc3c(Br)cnn23)cn1` [I-52, 3-bromo-7-(2-{[6-(trifluoromethyl)pyridin-3-yl]oxy}pyridin-3-yl)-pyrazolo[1,5-a]pyridine], the figures for the MIC in assay [1] and in assay [2] were 0.2 to 0.78 µg/mL (≈ 0.46 to 1.79 µM) and not above 0.1 µg/mL, respectively.

As for `COc1ncccc1-c1cccnc1Oc1ccc(C2CC2)nc1` [I-130, 2-[(6-cyclopropylpyridin-3-yl)oxy]-2′-methoxy-3,3′-bipyridine], the MIC in assay [1] and in assay [2] was 0.2 to 0.78 µg/mL (≈ 0.626 to 2.44 µM) each time.

As to `COc1ccncc1-c1cccnc1Oc1ccc(C#N)cc1` [I-243, 4-{[4′-methoxy-(3,3′-bipyridin)-2-yl]oxy}benzonitrile], the MIC in assay [1] and in assay [2] was 0.2 to 0.78 µg/mL (≈ 0.659 to 2.57 µM) each time.

Regarding `COc1ncccc1-c1cccnc1Oc1ccc(CCc2cc(C)no2)cc1` [I-408, 5-(4-{[2′-methoxy-(3,3′-bipyridin)-2-yl]oxy}phenethyl)-3-methylisoxazole], the MIC in assay [1] and in assay [2] was not above 0.1 µg/mL in each case.

`COc1ncccc1-c1cccnc1Oc1ccc(C(F)(F)F)cc1` [I-202, 2-methoxy-2′-[4-(trifluoromethyl)phenoxy]-3,3′-bipyridine]: the MIC in assay [1] and in assay [2] was not above 0.1 µg/mL in each case.

`COc1cc(F)ccc1-c1cccnc1Oc1ccc(C2CC2)nc1` [I-129, 2-[(6-cyclopropylpyridin-3-yl)oxy]-3-(4-fluoro-2-methoxyphenyl)pyridine]: the MIC in assay [1] and in assay [2] was not above 0.1 µg/mL in each case.

With `COc1ccccc1-c1cccnc1Oc1ccc(C(F)(F)Cn2cc(C)cn2)nc1` [I-153, 2-{(6-[1,1-difluoro-2-(4-methyl-1H-pyrazol-1-yl)ethyl]pyridin-3-yl}oxy)-3-(2-methoxyphenyl)pyridine], the MIC in assay [1] and in assay [2] was not above 0.1 µg/mL throughout.

For `FC(F)(F)c1ccc(Oc2ncccc2-c2cccc3ccncc23)cn1` [I-43, 8-(2-{[6-(trifluoromethyl)pyridin-3-yl]oxy}pyridin-3-yl)-isoquinoline], the MIC in assay [1] and in assay [2] was 0.2 to 0.78 µg/mL (≈ 0.544 to 2.12 µM) each time.

For the compound `COc1ccc(F)c(-c2cccnc2Oc2ccc(C(F)F)nc2)c1` [I-74, 2-{[6-(difluoromethyl)pyridin-3-yl]oxy}-3-(2-fluoro-5-methoxyphenyl)pyridine], the MIC in assay [1] and in assay [2] was not above 0.1 µg/mL in each case.

As to `COc1cc(F)ccc1-c1cccnc1Oc1ccc(C(F)(F)Cn2ccnc2)nc1` [I-158, 2-{(6-[1,1-difluoro-2-(1H-imidazol-1-yl)ethyl]pyridin-3-yl)oxy}-3-(4-fluoro-2-methoxyphenyl)pyridine], the MIC was not above 0.1 µg/mL in assay [1] and 0.2 to 0.78 µg/mL (≈ 0.469 to 1.83 µM) in assay [2].

For `CC(F)(F)c1ccc(Oc2ncccc2-c2cccc3ccnn23)cc1` [I-307, 7-{2-[4-(1,1-difluoroethyl)-phenoxy]pyridin-3-yl}pyrazolo[1,5-a]pyridine], the MIC in assay [1] and in assay [2] was not above 0.1 µg/mL in each case.

In the case of `COCc1ccc(Oc2ncccc2-c2cnccc2OC)cc1` [I-251, 4′-methoxy-2-[4-(methoxymethyl)phenoxy]-3,3′-bipyridine], the MIC in assay [1] and in assay [2] was 1.56 to 6.25 µg/mL (≈ 4.84 to 19.4 µM) in each case.

As for `COc1ccccc1-c1ccnnc1Oc1ccc(C(F)(F)F)nc1` [I-311, 4-(2-methoxyphenyl)-3-{[6-(trifluoromethyl)pyridin-3-yl]oxy}pyridazine], the MIC in assay [1] and in assay [2] was 0.2 to 0.78 µg/mL (≈ 0.576 to 2.25 µM) each time.

As for `CCOC(=O)c1ccc(Oc2ncccc2-c2cnccc2CC)cc1` [I-416], the MIC in assay [1] and in assay [2] was not above 0.1 µg/mL each time.

In the case of `Cc1cc(-c2ccc(Oc3ncccc3-c3cnccc3C)cc2)on1` [I-425], the MIC in assay [1] and in assay [2] was not above 0.1 µg/mL throughout.

For the compound `COc1ccccc1-c1cccnc1Oc1cnc2c(c1)CCCCC2` [I-136, 3-{[3-(2-methoxyphenyl)pyridin-2-yl]oxy}-6,7,8,9-tetrahydro-5H-cyclohepta[b]pyridine], the MIC in assay [1] and in assay [2] was not above 0.1 µg/mL throughout.

Consider `CCN(C)c1ccc(Oc2ncccc2-c2ccc(F)cc2OC)cn1` [I-367, N-ethyl-5-{[3-(4-fluoro-2-methoxyphenyl)pyridin-2-yl]oxy}-N-methylpyridin-2-amine], for which the MIC in assay [1] and in assay [2] was not above 0.1 µg/mL in each case.

On to `Nc1ccccc1-c1cccnc1Oc1ccc(C(F)(F)F)nc1` [I-61, 2-(2-{[6-(trifluoromethyl)pyridin-3-yl]oxy}pyridin-3-yl)-aniline], for which the MIC in assay [1] and in assay [2] was 1.56 to 6.25 µg/mL (≈ 4.71 to 18.9 µM) each time.

As to `COc1ccnc(OC)c1-c1cccnc1Oc1ccc(C(F)(F)F)cc1` [I-203, 2,4-dimethoxy-2′-[4-(trifluoromethyl)phenoxy]-3,3′-bipyridine], the MIC in assay [1] and in assay [2] was not above 0.1 µg/mL each time.

Turning to `COc1ccncc1-c1cccnc1Oc1ccc(C(F)(F)F)cc1` [I-210, 4′-methoxy-2-[4-(trifluoromethyl)phenoxy]-3,3′-bipyridine], the MIC in assay [1] and in assay [2] was not above 0.1 µg/mL throughout.

With `COc1ncccc1-c1cccnc1Oc1cnc2c(c1)CCCC2` [I-135, 3-{[2′-methoxy-(3,3′-bipyridin)-2-yl]oxy}-5,6,7,8-tetrahydroquinoline], the MIC in assay [1] and in assay [2] was not above 0.1 µg/mL each time.

With `COCC(F)(F)c1ccc(Oc2ncccc2-c2cc(Cl)cnc2OC)cn1` [I-451], the MIC in assay [1] and in assay [2] was not above 0.1 µg/mL each time.

`CC(F)(F)c1ccc(Oc2ncccc2-c2cccc3ncoc23)cn1` [I-114, 7-(2-{[6-(1,1-difluoroethyl)pyridin-3-yl]oxy}pyridin-3-yl)benzo[d]oxazole]: the MIC in assay [1] and in assay [2] was 0.2 to 0.78 µg/mL (≈ 0.566 to 2.21 µM) throughout.

With `CCOCCc1ccc(Oc2ncccc2-c2cnccc2OC)cc1` [I-274, 2-[4-(2-ethoxyethyl)phenoxy]-4′-methoxy-3,3′-bipyridine], the MIC in assay [1] and in assay [2] was 0.2 to 0.78 µg/mL (≈ 0.571 to 2.23 µM) in each case.

As for `COc1ncc(Cl)cc1-c1cccnc1Oc1ccc(C(F)(F)F)nc1` [I-31, 5-chloro-2-methoxy-2′-{[6-(trifluoromethyl)pyridin-3-yl]oxy}-3,3′-bipyridine], the minimum inhibitory concentration (MIC) in assay [1] and in assay [2] was not above 0.1 µg/mL in each case.

Regarding `CCC(C)c1ccc(Oc2ncccc2-c2cnccc2OC)cc1` (stereo not shown) [I-256, 2-[4-(sec-butyl)phenoxy]-4′-methoxy-3,3′-bipyridine], the MIC in assay [1] and in assay [2] was not above 0.1 µg/mL throughout.

Turning to `COc1ccccc1-c1cccnc1Oc1ccc(OCCc2ccccc2)nc1` [I-173, 3-(2-methoxyphenyl)-2-[(6-phenethoxypyridin-3-yl)oxy]pyridine], the MIC in assay [1] and in assay [2] was not above 0.1 µg/mL each time.

Regarding `COc1ccccc1-c1cccnc1Oc1ccc(C(F)(F)CN(C)C)nc1` [I-147, 2,2-difluoro-2-(5-{[3-(2-methoxyphenyl)pyridin-2-yl]oxy}-2-yl)-N,N-dimethylethanamine], the MIC in assay [1] is not above 0.1 µg/mL; in assay [2], 0.2 to 0.78 µg/mL (≈ 0.519 to 2.02 µM).

Consider `COc1ccncc1-c1cccnc1Oc1ccc(C(F)F)c(C)c1` [I-295, 2-[4-(difluoromethyl)-3-methylphenoxy]-4′-methoxy-3,3′-bipyridine], for which the MIC in assay [1] and in assay [2] was not above 0.1 µg/mL throughout.

Regarding `Cc1ncccc1-c1cccnc1Oc1ccc(C(F)(F)F)nc1` [I-24, 2-methyl-2′-{[6-(trifluoromethyl)pyridin-3-yl]oxy}-3,3′-bipyridine], the MIC in assay [1] and in assay [2] was 1.56 to 6.25 µg/mL (≈ 4.71 to 18.9 µM) each time.

Consider `COc1ccncc1-c1cccnc1Oc1ccc(Cl)cc1` [I-235, 2-(4-chlorophenoxy)-4′-methoxy-3,3′-bipyridine], for which the MIC in assay [1] and in assay [2] was 0.2 to 0.78 µg/mL (≈ 0.639 to 2.49 µM) throughout.

Consider `COc1ncccc1-c1cccnc1Oc1ccc(OCc2ccccc2)cc1` [I-277, 2-[4-(benzyloxy)phenoxy]-2′-methoxy-3,3′-bipyridine], for which the MIC in assay [1] and in assay [2] was not above 0.1 µg/mL each time.

`COc1cc(-c2cccnc2Oc2ccc(C(C)(F)F)nc2)c(F)cc1F` [I-85]: the MIC in assay [1] and in assay [2] was not above 0.1 µg/mL in each case.

In the case of `COc1ccccc1-c1cccnc1Oc1cnc2c(c1)CCCC2` [I-134, 3-{[3-(2-methoxyphenyl)pyridin-2-yl]oxy}-5,6,7,8-tetrahydroquinoline], the MIC in assay [1] and in assay [2] was not above 0.1 µg/mL each time.

`COc1ccc(Cl)cc1-c1cccnc1Oc1ccc(C(F)(F)F)nc1` [I-23, 3-(5-chloro-2-methoxyphenyl)-2-{[6-(trifluoromethyl)pyridin-3-yl]oxy}pyridine]: the MIC in assay [1] and in assay [2] was not above 0.1 µg/mL throughout.
